From US8101572B2, “Methods for promoting wound healing and/or reducing scar formation” (Arizona Board of Regents, A Corporate Body Organized Under …, priority 2003, dated 2012)
Non-standard residues stand in square brackets, D forms with d. No end group written: not given here. pS = N[C@@H](COP(=O)(O)O)C(=O)O

Experiments:
3T3 cells [1] = experiment: focal adhesion assay using interference reflection microscopy; assay type: cell-based; conditions: cultured 3T3 cells; 100 nM Hep I, 10 μM and 25 μM peptide; FIG. 2
Method: Results from the focal adhesion assay using interference reflective microscopy on 3T3 cells treated as described (4). Each condition was tested in triplicate, and an average of 250 cells per coverslip was counted. A cell was scored positive if it contained at least five focal adhesions. Hep I (peptide from thrombospondin 1) was used as a positive control. *P<0.05 compared to untreated cells.
(§1) Unless otherwise stated, all reagents were purchased from Sigma, St. Louis, Mo. Swiss Albino 3T3 fibroblasts (ATCC, Manassas, Va.) were cultured in DMEM supplemented with 10% BCS, 4 mM L-glutamine and 50 μg/ml penicillin-streptomycin and maintained at 37° C., 5% CO2. Cells were seeded and cultured overnight. Culture media was replaced with DMEM containing 0.5% BCS 1 hour prior to experimentation. Cells were incubated with the peptide analogues or reagent (LPA or forskolin) diluted in DMEM containing 0.5% BCS, 30 minutes at 37° C. Cells were then fixed in 4% paraformnaldehyde, permeabilized in 0.25% Triton X-100, and blocked with 1% BSA solution for 1 hour. To determine f-actin cytoskeletal distribution, treated cells were incubated with Alexa 568 phalloidin (Molecular Probes, Eugene, Oreg.) in 1% BSA, 30 minutes. […] Slides were mounted and analyzed by confocal microscopy (Leica TCS SP2, Bannockburn, Ill.). […]

[2] = test system: motor cortex of Sprague Dawley rats; experiment: microwire neural electrode implant, histology for glial scarring (GFAP) and axons (MAP2); assay type: in vivo; conditions: rat motor cortex, four weeks after implant; peptide as subdural injection (0.1 cc, 100 μm p20) with dextran coated electrodes
Text: Microwire arrays were implanted in the motor cortex of Sprague Dawley rats. Six male Sprague-Dawley rats (300-450 g) were implanted with 2×4 arrays of 50 μm tungsten wire. The electrodes were spaced 500 um apart for a total array size of approximately 1.5 mm×0.5 mm. The implant was centered +3 mm anterior and +2 mm lateral from bregmna. The craniotomy was opened slightly larger than the implant size and an injection (0.1 cc, 0.9% PBS or 100 μm p20) was made into the arachnoid space near the implant site using a 30 gauge needle. The mirowire array was held in a micromanipulator and lowered 2 mm from the surface of the dura. The craniotomy was covered with Gelfoam® and the implant and connector were cemented in place with dental acrylic. Three groups were implanted and evaluated histologically after four weeks. Group one was implanted with untreated electrodes. […] Texas Red labeled anti-Rabbit and Cy5 labeled antij-donkey secondary antibodies were used respectively for visualization.

Swiss albino 3T3 cells [3] = experiment: f-actin cytoskeletal distribution (Alexa 568 phalloidin, confocal microscopy); assay type: cell-based; conditions: 30 min, 10 μM LPA, 10 μM forskolin, 25 μM FITC-pHSP20, 25 μM FITC-aHSP20
Method: as §1
Swiss albino 3T3 cells were either untreated or treated with 10 μM LPA, 10 μM forskolin, 25 μM FITC-pHSP20, or 25 μM FITC-aHSP20 as described (4). Cells were fixed, stained for f-actin using Alexa 568 phalloidin, and visualized by projection images of confocal fluorescence microscopy. […]

3T3 cells [4] = experiment: DNase 1 inhibition assay for monomer g-actin; assay type: cell-based; conditions: forskolin 10 μM, 30 min, pHSP20 25 μM
Method: 3T3 cells were cultured and treated as indicated on the graph (4). Monomer g-actin was biochemically quantitated using a DNase 1 inhibition assay. The level of g-actin in the cell extract that caused 50% inhibition of DNase 1 was estimated from a standard actin curve that was determined using known amounts of actin. *P<0.05 compared to untreated cells.
To confirm that the loss of stress fibers is associated with loss of filamentous (f-) actin and commensurate increases in globular (g-) actin, a DNase 1 inhibition assay was performed (5). 3T3 cells were cultured and treated as indicated (4). Monomer g-actin was biochemically quantitated using a DNase 1 inhibition assay. The level of g-actin in the cell extract that caused 50% inhibition of DNase 1 was estimated from a standard actin curve that was determined using known amounts of actin. […] Thus, transduction of pHSP20 led to similar changes in actin filament dynamics and cellular morphology, as did activation of the upstream adenylate cyclase activator forskolin.

Swiss albino 3T3 cells [5] = experiment: focal adhesion protein localization (immunostaining for α-actinin, vinculin, paxillin); assay type: cell-based; conditions: 30 min, 10 μM forskolin, 25 μM pHSP20, 25 μM FITC-aHSP20
Method: Unless otherwise stated, all reagents were purchased from Sigma, St. Louis, Mo. Swiss Albino 3T3 fibroblasts (ATCC, Manassas, Va.) were cultured in DMEM supplemented with 10% BCS, 4 mM L-glutamine and 50 μg/ml penicillin-streptomycin and maintained at 37° C., 5% CO2. Cells were seeded and cultured overnight. Culture media was replaced with DMEM containing 0.5% BCS 1 hour prior to experimentation. Cells were incubated with the peptide analogues or reagent (LPA or forskolin) diluted in DMEM containing 0.5% BCS, 30 minutes at 37° C. Cells were then fixed in 4% paraformnaldehyde, permeabilized in 0.25% Triton X-100, and blocked with 1% BSA solution for 1 hour. To determine f-actin cytoskeletal distribution, treated cells were incubated with Alexa 568 phalloidin (Molecular Probes, Eugene, Oreg.) in 1% BSA, 30 minutes. To determine focal adhesion protein localization, treated cells were incubated with primary monoclonal antibodies for α-actinin (1:100, Upstate, Charlottesville, Va.), vinculin (1:100, Sigma) or paxillin (1:100, BD Bioscience-Transduction Labs, San Jose, Calif.) in 1% BSA solution for 2 hours, rinsed in PBS and incubated 60 min with Cy3-goat IgG secondary antibody (Jackson ImmunoResearch, West Grove, Pa.). Slides were mounted and analyzed by confocal microscopy (Leica TCS SP2, Bannockburn, Ill.). […]

| Substance | focal adhesions (cells positive for focal adhesions) (3T3 cells [1]) | density of axons in the vicinity of the microwire electrodes [2] | glial scarring around electrodes [2] | cell morphology and stress fibers (f-actin) (Swiss albino 3T3 cells [3]) | g-actin (monomer) in cell extract (3T3 cells [4]; FIG. 1) | g-actin (monomer) in cell extract (3T3 cells [4]; FIG. 1, listed as PhosphoHSP20 peptide) | focal adhesion accumulations of α-actinin, vinculin, and paxillin (Swiss albino 3T3 cells [5]) |
| --- | --- | --- | --- | --- | --- | --- | --- |
| YGRKKRRQRRRWLRRApSAPLPGL (YGRKKRRQRRRWLRRA[pS]APLPGL) [pHSP20, phosphopeptide analogue of HSP20 with HIV Tat protein transduction domain] | led to disruption of focal adhesions | a higher density of axons was seen | essentially no scarring was observed | displayed stellate morphology and disrupted stress fibers | led to increases in g-actin | disrupts the actin cytoskeleton | displayed a decrease in focal adhesion accumulations of α-actinin, vinculin, and paxillin |
| lysophosphatidic acid [reference compound] |  |  |  | displayed robust stress fibers |  |  |  |
